Data from patent US6737383B1, “Herbicidal oxadiazolidines” (priority 1999, dated 2004).

Columns and labels:
wild oat = assay: Test B pre/postemergence wild oat; format: in vivo, Avena fatua
In short: (§1)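 Herbicidal effect was estimated by eye on a ten-point control scale after plants spent twelve to sixteen days in a greenhouse following soil or foliar treatment. Foliar sprays targeted plants at one to four leaves; all doses were formulated in a non-phytotoxic solvent with surfactant.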

soybean = assay: Test B pre/postemergence soybean; format: in vivo, Glycine max
In short: as §1

rape = assay: Test B pre/postemergence rape; format: in vivo, Brassica napus
In short: as §1

blackgrass = assay: Test B pre/postemergence blackgrass; format: in vivo, Alopecurus myosuroides
In short: as §1

corn = assay: Test B pre/postemergence corn; format: in vivo, Zea mays
In short: as §1

bedstraw = assay: Test B pre/postemergence bedstraw; format: in vivo, Galium aparine; conditions: Preemergence
In short: as §1

cocklebur = assay: Test B pre/postemergence cocklebur; format: in vivo, Xanthium strumarium
In short: as §1

surinam grass = assay: Test B pre/postemergence surinam grass; format: in vivo, Brachiaria decumbens
In short: as §1

morningglory = assay: Test B pre/postemergence morningglory; format: in vivo, Ipomoea hederacea
In short: as §1

velvetleaf = assay: Test B pre/postemergence velvetleaf; format: in vivo, Abutilon theophrasti
In short: as §1

wheat = assay: Test B pre/postemergence wheat; format: in vivo, Triticum aestivum
In short: as §1

sugar beet = assay: Test B pre/postemergence sugar beet; format: in vivo, Beta vulgaris
In short: as §1

pigweed = assay: Test B pre/postemergence pigweed; format: in vivo, Amaranthus retroflexus
In short: as §1

purple nutsedge = assay: Test B pre/postemergence purple nutsedge; format: in vivo, Cyperus rotundus
In short: as §1

crabgrass = assay: Test B pre/postemergence crabgrass; format: in vivo, Digitaria sanguinalis
In short: as §1

giant foxtail = assay: Test B pre/postemergence giant foxtail; format: in vivo, Setaria faberii
In short: as §1

[1] = Preemergence, Rate 62 g/ha, scale of 0 to 10 where 0 is no effect and 10 is complete control
[2] = Preemergence, Rate 125 g/ha, scale of 0 to 10 where 0 is no effect and 10 is complete control
[3] = Preemergence, Rate 500 g/ha, scale of 0 to 10 where 0 is no effect and 10 is complete control
[4] = Preemergence, Rate 250 g/ha, scale 0 to 10 (0 no effect, 10 complete control)
[5] = Rate 62 g/ha, scale of 0 to 10 where 0 is no effect and 10 is complete control
[6] = Rate 125 g/ha, scale of 0 to 10 where 0 is no effect and 10 is complete control
[7] = Rate 500 g/ha, scale of 0 to 10 where 0 is no effect and 10 is complete control
[8] = Postemergence, Rate 62 g/ha, scale 0 to 10, 0 is no effect, 10 is complete control
[9] = Postemergence, Rate 125 g/ha, scale of 0 to 10 where 0 is no effect and 10 is complete control
[10] = Preemergence, Rate 250 g/ha, scale 0 (no effect) to 10 (complete control)
[11] = Rate 250 g/ha, Postemergence, scale 0 to 10, 0 is no effect, 10 is complete control
[12] = Rate 500 g/ha, Postemergence, scale 0 to 10, 0 is no effect, 10 is complete control

Question: Which “Wild oats plant response rating” value (wild oat; [1]) does the source give for `CCn1ncc(Cn2c(=O)on(C(=O)N(c3ccc(F)cc3F)C(C)C)c2=O)c1Cl` [Compound 682] here?
Answer: 0

Question: And the “Plant response rating, Wild oats” value (wild oat; [2])?
Answer: 0

Question: And the “Plant response rating, Wild oats” value (wild oat; [3])?
Answer: 8

Question: What about the “Soybean plant response rating” value (soybean; [1]) of the same compound?
Answer: 0

Question: And the “Plant response rating, Soybean” value (soybean; [2])?
Answer: 0

Question: What about the “Plant response rating, Soybean” value (soybean; [3]) of the same compound?
Answer: 0

Question: And the “Rape plant response rating” value (rape; [1])?
Answer: 0

Question: What about the “Plant response rating, Rape” value (rape; [2]) of the same compound?
Answer: 0

Question: And the “Plant response rating, Rape” value (rape; [3])?
Answer: 7

Question: And the “Blackgrass plant response rating” value (blackgrass; [1])?
Answer: 3

Question: What about the “Plant response rating, Blackgrass” value (blackgrass; [2]) of the same compound?
Answer: 5

Question: What about the “Plant response rating, Blackgrass” value (blackgrass; [4]) of the same compound?
Answer: 8

Question: And the “Plant response rating, Blackgrass” value (blackgrass; [3])?
Answer: 9

Question: And the “Corn plant response rating” value (corn; [1])?
Answer: 0

Question: And the “Plant response rating, Corn” value (corn; [2])?
Answer: 0

Question: What about the “Plant response rating, Corn” value (corn; [4]) of the same compound?
Answer: 0

Question: What about the “Plant response rating, Corn” value (corn; [3]) of the same compound?
Answer: 0

Question: What about the “Bedstraw plant response rating” value (bedstraw; [5]) of the same compound?
Answer: 0

Question: What about the “Plant response rating, Bedstraw” value (bedstraw; [6]) of the same compound?
Answer: 0

Question: And the “Plant response rating, Bedstraw” value (bedstraw; Rate 250 g/ha, scale 0 to 10 (0 no effect, 10 complete control))?
Answer: 0

Question: What about the “Plant response rating, Bedstraw” value (bedstraw; [7]) of the same compound?
Answer: 0

Question: And the “Cocklebur plant response rating” value (cocklebur; [1])?
Answer: 0

Question: And the “Plant response rating, Cocklebur” value (cocklebur; [2])?
Answer: 0

Question: What about the “Plant response rating, Cocklebur” value (cocklebur; [4]) of the same compound?
Answer: 0

Question: What about the “Plant response rating, Cocklebur” value (cocklebur; [3]) of the same compound?
Answer: 0

Question: What about the “B. signalgrass plant response rating” value (surinam grass; [1]) of the same compound?
Answer: 2

Question: And the “Plant response rating, B. signalgrass” value (surinam grass; [2])?
Answer: 6

Question: And the “Plant response rating, B. signalgrass” value (surinam grass; [4])?
Answer: 7

Question: What about the “Plant response rating, B. signalgrass” value (surinam grass; [3]) of the same compound?
Answer: 8

Question: What about the “Morningglory plant response rating” value (morningglory; [1]) of the same compound?
Answer: 0

Question: And the “Plant response rating, Morningglory” value (morningglory; [2])?
Answer: 0

Question: And the “Plant response rating, Morningglory” value (morningglory; [3])?
Answer: 3

Question: And the “Velvetleaf plant response rating” value (velvetleaf; [1])?
Answer: 0

Question: What about the “Plant response rating, Velvetleaf” value (velvetleaf; [2]) of the same compound?
Answer: 0

Question: And the “Plant response rating, Velvetleaf” value (velvetleaf; [3])?
Answer: 0

Question: And the “Wheat plant response rating” value (wheat; [1])?
Answer: 0

Question: What about the “Plant response rating, Wheat” value (wheat; [2]) of the same compound?
Answer: 0

Question: What about the “Plant response rating, Wheat” value (wheat; [3]) of the same compound?
Answer: 0

Question: What about the “Sugarbeets plant response rating” value (sugar beet; [1]) of the same compound?
Answer: 0

Question: What about the “Plant response rating, Sugarbeets” value (sugar beet; [2]) of the same compound?
Answer: 0

Question: What about the “Plant response rating, Sugarbeets” value (sugar beet; [3]) of the same compound?
Answer: 7

Question: What about the “Redroot pigweed plant response rating” value (pigweed; [1]) of the same compound?
Answer: 4

Question: And the “Plant response rating, Redroot pigweed” value (pigweed; [2])?
Answer: 4

Question: What about the “Plant response rating, Redroot pigweed” value (pigweed; [3]) of the same compound?
Answer: 7

Question: What about the “Nutsedge plant response rating” value (purple nutsedge; [1]) of the same compound?
Answer: 0

Question: And the “Plant response rating, Nutsedge” value (purple nutsedge; [2])?
Answer: 0

Question: What about the “Plant response rating, Nutsedge” value (purple nutsedge; [3]) of the same compound?
Answer: 0

Question: What about the “Crabgrass plant response rating” value (crabgrass; [1]) of the same compound?
Answer: 5

Question: What about the “Plant response rating, Crabgrass” value (crabgrass; [2]) of the same compound?
Answer: 9

Question: And the “Plant response rating, Crabgrass” value (crabgrass; [4])?
Answer: 9

Question: And the “Plant response rating, Crabgrass” value (crabgrass; [3])?
Answer: 9

Question: What about the “Giant foxtail plant response rating” value (giant foxtail; [1]) of the same compound?
Answer: 9

Question: And the “Plant response rating, Giant foxtail” value (giant foxtail; [2])?
Answer: 10

Question: And the “Plant response rating, Giant foxtail” value (giant foxtail; [3])?
Answer: 10

Question: Which results are given for `CC(C)N(C(=O)n1oc(=O)n(CCCCl)c1=O)c1ccc(F)cc1` [Compound 713]?
Answer: Plant response rating, Wild oats (wild oat; [8]): 0; Wild oats plant response rating (wild oat; [9]): 0; Wild oats plant response rating (wild oat; [1]): 2; Plant response rating, Wild oats (wild oat; [2]): 5; Wild oats plant response rating (wild oat; [10]): 8; Wild oats plant response rating (wild oat; [11]): 1; Wild oats plant response rating (wild oat; [12]): 5; Plant response rating, Soybean (soybean; [8]): 3; Soybean plant response rating (soybean; [9]): 4; Soybean plant response rating (soybean; [1]): 0; Plant response rating, Soybean (soybean; [2]): 0; Soybean plant response rating (soybean; [10]): 0; Soybean plant response rating (soybean; [11]): 5; Soybean plant response rating (soybean; [12]): 5; Plant response rating, Rape (rape; [8]): 0; Rape plant response rating (rape; [9]): 0; Rape plant response rating (rape; [1]): 4; Plant response rating, Rape (rape; [2]): 4; Rape plant response rating (rape; [10]): 8; Rape plant response rating (rape; [11]): 6; Rape plant response rating (rape; [12]): 6; Plant response rating, Blackgrass (blackgrass; [8]): 1; Blackgrass plant response rating (blackgrass; [9]): 3; Blackgrass plant response rating (blackgrass; [1]): 5; Plant response rating, Blackgrass (blackgrass; [2]): 8; Blackgrass plant response rating (blackgrass; [10]): 9; Plant response rating, Blackgrass (blackgrass; [3]): 9; Blackgrass plant response rating (blackgrass; [11]): 7; Blackgrass plant response rating (blackgrass; [12]): 7; Plant response rating, Corn (corn; [8]): 0; Corn plant response rating (corn; [9]): 0; Corn plant response rating (corn; [1]): 0; Plant response rating, Corn (corn; [2]): 0; Corn plant response rating (corn; [10]): 0; Corn plant response rating (corn; [11]): 0; Corn plant response rating (corn; [12]): 5; Bedstraw plant response rating (bedstraw; [5]): 0; Plant response rating, Bedstraw (bedstraw; [6]): 0; Bedstraw plant response rating (bedstraw; Rate 250 g/ha, scale 0 (no effect) to 10 (complete control)): 2; Plant response rating, Bedstraw (bedstraw; [7]): 6; Plant response rating, Cocklebur (cocklebur; [8]): 1; Cocklebur plant response rating (cocklebur; [9]): 2; Cocklebur plant response rating (cocklebur; [1]): 0; Plant response rating, Cocklebur (cocklebur; [2]): 0; Cocklebur plant response rating (cocklebur; [10]): 0; Plant response rating, Cocklebur (cocklebur; [3]): 0; Cocklebur plant response rating (cocklebur; [11]): 3; Cocklebur plant response rating (cocklebur; [12]): 6; Plant response rating, B. signalgrass (surinam grass; [8]): 0; B. signalgrass plant response rating (surinam grass; [9]): 3; B. signalgrass plant response rating (surinam grass; [1]): 5; Plant response rating, B. signalgrass (surinam grass; [2]): 7; B. signalgrass plant response rating (surinam grass; [10]): 8; Plant response rating, B. signalgrass (surinam grass; [3]): 9; B. signalgrass plant response rating (surinam grass; [11]): 5; B. signalgrass plant response rating (surinam grass; [12]): 7; Plant response rating, Morningglory (morningglory; [8]): 2; Morningglory plant response rating (morningglory; [9]): 3; Morningglory plant response rating (morningglory; [1]): 0; Plant response rating, Morningglory (morningglory; [2]): 0; Morningglory plant response rating (morningglory; [10]): 0; Morningglory plant response rating (morningglory; [11]): 7; Morningglory plant response rating (morningglory; [12]): 10; Plant response rating, Velvetleaf (velvetleaf; [8]): 3; Velvetleaf plant response rating (velvetleaf; [9]): 6; Velvetleaf plant response rating (velvetleaf; [1]): 2; Plant response rating, Velvetleaf (velvetleaf; [2]): 5; Velvetleaf plant response rating (velvetleaf; [10]): 5; Velvetleaf plant response rating (velvetleaf; [11]): 6; Velvetleaf plant response rating (velvetleaf; [12]): 7; Plant response rating, Wheat (wheat; [8]): 0; Wheat plant response rating (wheat; [9]): 1; Wheat plant response rating (wheat; [1]): 0; Plant response rating, Wheat (wheat; [2]): 0; Wheat plant response rating (wheat; [10]): 1; Wheat plant response rating (wheat; [11]): 2; Wheat plant response rating (wheat; [12]): 2; Plant response rating, Sugarbeets (sugar beet; [8]): 0; Sugarbeets plant response rating (sugar beet; [9]): 0; Sugarbeets plant response rating (sugar beet; [1]): 3; Plant response rating, Sugarbeets (sugar beet; [2]): 4; Sugarbeets plant response rating (sugar beet; [10]): 7; Sugarbeets plant response rating (sugar beet; [11]): 0; Sugarbeets plant response rating (sugar beet; [12]): 5; Plant response rating, Redroot pigweed (pigweed; [8]): 2; Redroot pigweed plant response rating (pigweed; [1]): 6; Plant response rating, Redroot pigweed (pigweed; [2]): 7; Redroot pigweed plant response rating (pigweed; [10]): 8; Redroot pigweed plant response rating (pigweed; [11]): 9; Redroot pigweed plant response rating (pigweed; [12]): 9; Plant response rating, Nutsedge (purple nutsedge; [8]): 0; Nutsedge plant response rating (purple nutsedge; [9]): 0; Nutsedge plant response rating (purple nutsedge; [1]): 0; Plant response rating, Nutsedge (purple nutsedge; [2]): 0; Nutsedge plant response rating (purple nutsedge; [10]): 0; Nutsedge plant response rating (purple nutsedge; [11]): 0; Nutsedge plant response rating (purple nutsedge; [12]): 3; Plant response rating, Crabgrass (crabgrass; [8]): 2; Crabgrass plant response rating (crabgrass; [9]): 9; Crabgrass plant response rating (crabgrass; [1]): 10; Plant response rating, Crabgrass (crabgrass; [2]): 10; Crabgrass plant response rating (crabgrass; [10]): 10; Crabgrass plant response rating (crabgrass; [11]): 9; Crabgrass plant response rating (crabgrass; [12]): 9; Plant response rating, Giant foxtail (giant foxtail; [8]): 4; Giant foxtail plant response rating (giant foxtail; [9]): 9; Giant foxtail plant response rating (giant foxtail; [1]): 10; Plant response rating, Giant foxtail (giant foxtail; [2]): 10; Giant foxtail plant response rating (giant foxtail; [10]): 10; Giant foxtail plant response rating (giant foxtail; [11]): 9; Giant foxtail plant response rating (giant foxtail; [12]): 9
